Data on 3 compounds can be found in patent US9901081B2, “Transgenic mouse for determining the role of senescent cells in cancer” (Buck Institute for Research on Aging, priority 2012, dated 2018).

The structures appear in SMILES notation.

Series [1] deals with K-Ras induced lung tumors. Briefly: K-Ras mediated lung tumor multiplicity in INK-ATTAC:K-RasLA1 mice. The class given is in vivo, mouse. More on the design: dose or concentration left out as unconfirmed. To be noted: INK-ATTAC3:K-RasLA1 and INK-ATTAC5:K-RasLA1 mice; from three weeks of age; twenty one days after treatment; FIG. 4. The text has this: Briefly, INK-ATTAC (p16^Ink4a apoptosis through targeted activation of caspase) transgenic mice have an FK506-binding protein (FKBP)-caspase 8 (Casp8) fusion polypeptide under the control of the p16^Ink4a promoter (see FIG. 5 providing a vector sequence for the transgene and FIG. 6 providing sequences for components of the transgene including the promoter sequence). In the presence of AP20187, a synthetic drug that induces dimerization of a membrane bound myristoylated FKBP-Casp8 fusion protein, senescent cells specifically expressing the FKBP-Casp8 fusion protein via the p16^Ink4a promoter undergo programmed cell death (apoptosis) (see, e.g., Baker, Nature, supra, FIG. 1 therein). Two founder lines (INK-ATTAC^3 and INK-ATTAC^5) were each bred with the K-rasLA1 tumor model. […]
Two INK-ATTAC:K-RasLA1 were produced (one for INK-ATTAC line 3 and one for line 5). […] Twenty one days after treatment, the mice were sacrificed and tumor multiplicity in lungs was measured. […] In addition, metastasis and overall survival will be monitored after tumor induction in the presence or absence of p16-positive cells.

A short description of series [2]: Behavior metrics in p16-3MR mice bearing MMTV-PymT tumors. In kind it is in vivo, mouse. As for the experimental part:
(§1) The MMTV-PymT tumor cells (5×10^5 cells) were injected into a mammary fat pad of each mouse. Small primary tumors formed over a period of one week. Then doxorubicin (DOXO) at 10 mg/kg or vehicle only (PBS) was administered once at Day 7. Beginning three days after mice received DOXO, GCV was then administered daily for five days intraperitoneally at 25 mg/kg, or vehicle only was administered. Four different treatment groups of mice (7 mice per group) included (1) no doxorubicin (vehicle), no GCV (vehicle); (2) doxorubicin, no GCV; (3) no doxorubicin, GCV; and (4) doxorubicin, GCV. Bioluminescence in tissues was examined (after administering the firefly luciferase (fLUC) substrate) to monitor tumor formation (see FIG. 14).
(§2) Mice were housed in metabolic cages (Promethion, Sable Systems International, Las Vegas, Nev.) for a period of 4 days to monitor food consumption, water consumption, body mass, spontaneous activity and behavior, voluntary exercise, oxygen consumption, and carbon dioxide production. Three days after GCV treatment, animals were monitored for three nights, and the following nocturnal measurements were obtained: VO2 (mL/min); VCO2 (mL/min); food uptake (g); water uptake (g); Kcal/hr; and wheel run distance (m). The data represent the average of the three nocturnal measurements.
Behavior of animals treated doxorubicin or doxorubicin and GCV was assessed by several criteria accepted in the art as behavior metrics.

Series [3] has as its system senescent cells. Put plainly: Detection and clearance of senescent cells by rLUC bioluminescence in irradiated p16-3MR mice. In kind it is in vivo, mouse. To be noted: 7 Gy X-ray, after three months GCV 25 mg/kg, lung tissue, FIG. 1A. Here is the method:
Briefly, a group of p16-3MR transgenic mice were exposed to whole body ionizing radiation (7 Gy X-ray) and a control group of p16-3MR transgenic mice were mock-irradiated. After three months, the mice were treated with GCV (25 mg/kg) or vehicle only, and then at least two weeks later bioluminescence in tissues was examined after administering the rLUC substrate.

In the next series the test system is p16INK4a and mRFP mRNAs. Put plainly: Senescent cell biomarkers in skin biopsies of doxorubicin-treated p16-3MR mice. In kind it is in vivo, mouse. To be noted: doxorubicin 10 mg/kg, then vehicle or GCV 25 mg/kg daily for 7 days; FIG. 10. Here is the method: (§3) Briefly, p16-3MR transgenic mice were treated with vehicle (ctrl) or 10 mg/kg doxorubicin. Seven days after doxorubicin treatment, mice were treated daily with GCV (25 mg/kg) for 7 days or vehicle only. 3 days after the last GCV treatment, 4×10^5 B16 mouse melanoma cells were injected subcutaneously into the p16-3MR transgenic mice, and mice were sacrificed after 12 days for analysis.
Skin biopsies were collected and measured for abundance of senescent cell biomarkers (p16INK4a and mRFP mRNAs).

The subject of series [4] is B16 mouse melanoma cells. Put plainly: Subcutaneous B16 melanoma growth in doxorubicin-treated p16-3MR mice. In kind it is in vivo. To be noted: for tumor growth / primary tumors (B16 bioluminescence) / tumor diameters (tumor sizes): then vehicle or GCV, twelve days after B16 injection; for tumor growth / primary tumors (B16 bioluminescence): FIG. 11; for tumor diameters (tumor sizes): FIG. 12. As for the experimental part:
as §3

Series [5] deals with p16INK4a, IL-6, MMP-3, mRFP expression. Briefly: RNA expression of SASP biomarkers and mRFP reporter after irradiation and GCV. In kind it is in vivo, mouse.
The test system of series [6] is B16 mouse melanoma cells. Briefly: B16 melanoma tail-vein engraftment in irradiated p16-3MR mice (primary tumors and metastases). In kind it is in vivo. Here is the method: Briefly, 10^6 B16 mouse melanoma cells, a highly aggressive cell line that is syngeneic with p16-3MR transgenic mice (C57B16 background), that express firefly luciferase (fLUC, to enable their detection by bioluminescence) were injected into the tail vein of the p16-3MR transgenic mice three months after being either mock irradiated or irradiated, as described in Example 2. B16 mouse melanoma cells first colonize the lung, where they form primary tumors approximately two weeks after injection, and thereafter metastasize to distal tissues to form secondary tumors in, for example, the pancreas, liver and visceral fat. The biolumninescence markers, fLUC and rLUC are distinguishable because the enzymes use different substrates.
As nodules are difficult to count in fat tissue, metastatic cells were represented as an estimated % of total area of fat.

The subject of series [7] is senescent cells. Briefly: Doxorubicin-induced senescent cells in tissues of p16-3MR mice (mRFP and p16INK4a mRNA). In kind it is in vivo, mouse. To be noted: doxorubicin 10 mg/kg. The text has this:
Similar results were observed when the senescent cell accumulation was induced with the chemotherapeutic agent, doxorubicin. […] Various tissues were isolated (liver, heart, lung, kidney, and spleen) and measured for abundance of mRNAs encoding mRFP and p16INK4a as markers for senescent cells (see FIGS. 9A and 9B, respectively).

Series [8] is described as follows: Metabolic cage measurements in p16-3MR mice not injected with tumor cells. In kind it is in vivo, mouse. To be noted: doxorubicin 10 mg/kg once, GCV 25 mg/kg i.p. 5x daily. Here is the method:
(§4) Groups of p16-3MR transgenic mice (5 mice per group) were treated once with doxorubicin (10 mg/kg) or vehicle only as described above. Three days later, GCV was administered 5× daily intraperitoneally at 25 mg/kg, or vehicle only was administered. Three different treatment groups of mice included (1) untreated (NT); (2) doxorubicin, no GCV (DOXO+PBS); (3) doxorubicin and GCV (DOXO+GCV). Mice were housed in metabolic cages for 5-8 days and monitored as described above.

Series [9] in a line: Metabolic cage measurements in p16-3MR mice bearing MMTV-PymT tumors. In kind it is in vivo, mouse. To be noted: MMTV-PymT tumor mice; DOXO 10 mg/kg Day 7, GCV 25 mg/kg i.p. daily 5 days; average of three nocturnal measurements. Here is the method:
as §1, §2

A short description of series [10]: Behavior metrics in p16-3MR mice not injected with tumor cells. The class given is in vivo, mouse. Here is the method: as §4
Setting [11] is: GCV, fifteen days after B16 injection, FIG. 2C.
Where [12] appears, read: MMTV-PymT tumor mice, 28 days after injection with tumor cells.

With `CC[C@H](C(=O)N1CCCC[C@H]1C(=O)O[C@H](CCc1ccc(OC)c(OC)c1)c1cccc(OCC(=O)NCC(CNC(=O)COc2cccc([C@@H](CCc3ccc(OC)c(OC)c3)OC(=O)[C@@H]3CCCCN3C(=O)[C@@H](CC)c3cc(OC)c(OC)c(OC)c3)c2)CN(C)C)c1)c1cc(OC)c(OC)c(OC)c1` [AP20187], the “tumor numbers (tumor multiplicity in lungs)” value in series [1] was “significantly reduced”.

Turning to `Nc1nc(O)c2ncn(COC(CO)CO)c2n1` [GCV, ganciclovir], the “active behaviors (WHEEL, LLNGE, SLNGE)” value in series [2] (tumor model animals treated with GCV after doxorubicin, vs doxorubicin only) is on record as “significantly more active behaviors”. Further, the “rLUC expression levels (bioluminescence in tissues)” value in the series on senescent cells [3] is “comparable to unirradiated mice”. In addition, the “senescence in skin biopsies measured by p16INK4a and mRFP expression” value in the series on p16INK4a and mRFP mRNAs was “low levels of p16INK4a and mRFP expression”. Further, in the series with B16 mouse melanoma cells [4] (doxorubicin 10 mg/kg), the “tumor growth / primary tumors (B16 bioluminescence)” value is on record as “much smaller primary tumors” and the “tumor diameters (tumor sizes)” value is “smaller tumor sizes”. Moreover, the “size of B16 melanoma tumors” value with B16 mouse melanoma cells [4] (mice pre-treated with doxorubicin 10 mg/kg, GCV 25 mg/kg daily for 7 days) is “substantially reduced the size”. Moreover, the “p16INK4a (p16), IL-6, MMP-3 and mRFP expression levels” value in series [5] (irradiated p16-3MR mice treated with GCV, FIG. 1B) is “returned p16INK4a (p16), IL-6, MMP-3 and mRFP expression levels to those found in the unirradiated control mice”. In addition, the “effect on expression levels in wild-type mice” value in series [5] (wild-type, non-transgenic C57B16 mice, data not shown) is reported as “no detectable effect”. In the series with B16 mouse melanoma cells [6] (18 days after injection), the “Detection of metastatic B16 melanoma cells: Fat (estimated % of total area of fat)” value is reported as 25%, the “Detection of metastatic B16 melanoma cells: Liver (luminescent metastatic nodules)” value is 7 ± 3.6 nodules and the “Detection of metastatic B16 melanoma cells: Lung (luminescent nodules)” value is reported as “TNTC”. Also, the “levels of B16 cells as detected by luminescence” value in the series on B16 mouse melanoma cells [6] (GCV, day 18, FIG. 8) is “still showed relatively low levels of B16 cells”. Besides, the primary lung tumors entry in the series with B16 mouse melanoma cells [6] (GCV, eighteen days after injection, FIG. 3A) is “large primary lung tumors were evident”. Besides, the “metastases in distal organs (liver and fat tissue)” value in the series with B16 mouse melanoma cells [6] (GCV, eighteen days after injection, FIG. 3A, 3C) is listed as “almost devoid of metastases”. Further, in the series on B16 mouse melanoma cells [6] (setting [11]), the metastases entry is given as “many fewer metastases” and the primary tumors entry is given as “much smaller primary tumors”. In addition, in the series with B16 mouse melanoma cells [6] (GCV, fifteen days after injection, FIG. 8), the “levels of B16 cells as detected by luminescence” value is on record as “relatively low levels of B16 cells”.

For the compound `COc1cccc2c1C(=O)c1c(O)c3c(c(O)c1C2=O)C[C@@](O)(C(=O)CO)C[C@@H]3O[C@H]1C[C@H](N)[C@H](O)[C@H](C)O1` [doxorubicin], in series [2] (setting [12]), the “IHOME: Entered habitat (stable mass reading)” value is given as 4.86 ± 12.3; the “LLNGE: Long lounge (>60 sec, no non-XY sensor interactions)” value is 72.06 ± 24.05; the “SLNGE: Short lounge (5-60 sec, no non-XY sensor interactions)” value is 5.34 ± 3.64; the “THOME: Interaction with habitat (no stable mass reading)” value stood at 1.16 ± 2.54. Also, the “WHEEL: Interaction with wheel (>=1 revolution)” value in series [2] (setting [12]) was 7.09 ± 10.84. The “presence of senescent cells in tissues” value in the series on senescent cells [7] (p16-3MR mice) is on record as “induced the persistent presence of senescent cells”. Besides, the “levels of mRFP and p16INK4a mRNA in tissues” value with senescent cells [7] (liver, heart, lung, kidney, spleen, vs untreated control mice, FIGS. 9A, 9B) is “higher levels of mRFP and p16INK4a in all tissues”. Also, in [8], the Kcal/hr was found to be 0.34 ± 0.1 kcal/h, the VCO2 is recorded as 1.1 ± 0.36 mL/min, the VO2 was 1.14 ± 0.34 mL/min and the “Wheel run distance (total m)” value amounted to 2708 ± 1867 m. In the series with p16INK4a and mRFP mRNAs, the “senescence in skin biopsies measured by p16INK4a and mRFP expression” value was “increased senescence”. Besides, in the series on B16 mouse melanoma cells [4] (doxorubicin 10 mg/kg), the “growth of B16 melanoma cells injected subcutaneously” value was “stimulated the growth”, the “tumor growth / primary tumors (B16 bioluminescence)” value was “increased” and the “tumor diameters (tumor sizes)” value is listed as “increased tumor sizes”. For the same compound, in series [9], the Kcal/hr amounted to 0.39 ± 0.1 kcal/h, the VCO2 is 1.19 ± 0.35 mL/min, the VO2 stood at 1.35 ± 0.33 mL/min and the Wheel run distance was 3315 ± 1958 m. Also, in series [10], the IHOME turned out to be 1.86 ± 1.66, the LLNGE turned out to be 61.46 ± 18.11, the SLNGE came out at 6.94 ± 2.51 and the THOME worked out at 1.15 ± 1.12. This compound also yielded a WHEEL in [10] of 9.58 ± 13.12.
